# Results reported in US10053454B2 (Bristol-Myers Squibb Company, priority 2013, dated 2018).
# Target: BRD4 (Homo sapiens, UniProt O60885)
# Assay: Time Resolved Fluorescence Resonance Energy Transfer (TR-FRET) binding assay
# Conditions: one of the FRET assays described (BRD4 construct not given)
row,SMILES,IC50 [µM]
1,"Cc1noc(C)c1-c1cc(C(N)=O)c2c(c1)c1ccc(N3CCOC3=O)cc1n2CC1CC1 [Example 45, 9-(cyclopropylmethyl)-3-(3,5-dimethyl-4-isoxazolyl)-7-(2-oxo-1,3-oxazolidin-3-yl)-9H-carbazole-1-carboxamide]",< 0.5
2,"Cc1noc(C)c1-c1cc(C(N)=O)c2c(c1)c1ccc(OC(=O)N3CCOCC3)cc1n2CC1CC1 [Example 50, 8-carbamoyl-9-(cyclopropylmethyl)-6-(3,5-dimethyl-4-isoxazolyl)-9H-carbazol-2-yl morpholine-4-carboxylate]",< 0.5
3,"Cc1noc(C)c1-c1cc(C#N)c2[nH]c3cc(C(=O)N4CCOCC4)ccc3c2c1 [Example 58, 3-(3,5-dimethyl-4-isoxazolyl)-7-(4-morpholinylcarbonyl)-9H-carbazole-1-carbonitrile]",< 5
4,"Cc1noc(C)c1-c1cc(C(N)=O)c2c(c1)c1cc(S(C)(=O)=O)ccc1n2S(=O)(=O)C1CC1 [Example 77, 9-(cyclopropylsulfonyl)-3-(3,5-dimethyl-4-isoxazolyl)-6-(methylsulfonyl)-9H-carbazole-1-carboxamide]",< 0.5
5,"Cc1noc(C)c1-c1cc(C(N)=S)c2[nH]c3cc(C(=O)N4CCOCC4)ccc3c2c1 [Example 64, 3-(3,5-dimethyl-4-isoxazolyl)-7-(4-morpholinylcarbonyl)-9H-carbazole-1-carbothioamide]",< 5
6,"Cc1noc(C)c1-c1cc(C(N)=O)c2c(c1)c1ccc(C(=O)N3CC(F)(F)C3)cc1n2S(=O)(=O)C1CC1 [Example 24, 9-(cyclopropylsulfonyl)-7-((3,3-difluoro-1-azetidinyl)carbonyl)-3-(3,5-dimethyl-4-isoxazolyl)-9H-carbazole-1-carboxamide]",< 0.05
7,"CCn1c2cc(C(=O)N3CCOCC3)ccc2c2cc(-c3c(C)noc3C)cc(C(N)=S)c21 [Example 67, 3-(3,5-dimethyl-4-isoxazolyl)-9-ethyl-7-(4-morpholinylcarbonyl)-9H-carbazole-1-carbothioamide]",< 0.5
8,"Cc1noc(C)c1-c1cc(C(N)=O)c2c(c1)c1c(S(C)(=O)=O)cccc1n2CC1CC1 [Example 81, 9-(cyclopropylmethyl)-3-(3,5-dimethyl-4-isoxazolyl)-5-(methylsulfonyl)-9H-carbazole-1-carboxamide]",< 0.05
9,"Cc1noc(C)c1-c1cc(C(N)=O)c2c(c1)c1ccc(C(C)(C)O)cc1n2S(=O)(=O)C1CC1 [Example 55, 9-(cyclopropylsulfonyl)-3-(3,5-dimethyl-4-isoxazolyl)-7-(1-hydroxy-1-methylethyl)-9H-carbazole-1-carboxamide]",< 0.05
10,"COc1ccc2c(c1)c1cc(-c3c(C)noc3C)cc(C(N)=O)c1n2S(C)(=O)=O [Example 72, 3-(3,5-dimethylisoxazol-4-yl)-6-methoxy-9-(methylsulfonyl)-9H-carbazole-1-carboxamide]",< 0.5
11,"Cc1noc(C)c1-c1cc(C(N)=O)c2c(c1)c1ccc(C(=O)N3CCCC(N(C)C)C3)cc1n2S(C)(=O)=O (stereo not drawn) [Example 10, 7-((3-(dimethylamino)-1-piperidinyl)carbonyl)-3-(3,5-dimethyl-4-isoxazolyl)-9-(methylsulfonyl)-9H-carbazole-1-carboxamide]",< 0.05
12,"COc1ccc2c3cc(-c4c(C)noc4C)cc(C(N)=O)c3n(CC3CC3)c2c1 [Example 49, 9-(cyclopropylmethyl)-3-(3,5-dimethyl-4-isoxazolyl)-7-methoxy-9H-carbazole-1-carboxamide]",< 0.05
13,"Cc1noc(C)c1-c1cc(C(N)=O)c2c(c1)c1ccc(C(=O)N3C[C@@H](C)O[C@@H](C)C3)cc1n2CC1CC1 [Example 2, 9-(cyclopropylmethyl)-3-(3,5-dimethyl-4-isoxazolyl)-7-((cis-2,6-dimethyl-4-morpholinyl)carbonyl)-9H-carbazole-1-carboxamide]",< 0.05
14,"Cc1noc(C)c1-c1cc(C(N)=O)c2c(c1)c1ccc(C(=O)N3CCOCC3)cc1n2CC1CC1 [Example 4, 9-(cyclopropylmethyl)-3-(3,5-dimethyl-4-isoxazolyl)-7-(4-morpholinylcarbonyl)-9H-carbazole-1-carboxamide]",< 0.05
15,"Cc1noc(C)c1-c1cc(C(N)=O)c2c(c1)c1ccc(C(=O)N3CC(F)(F)C3)cc1n2S(C)(=O)=O [Example 11, 7-((3,3-difluoro-1-azetidinyl)carbonyl)-3-(3,5-dimethyl-4-isoxazolyl)-9-(methylsulfonyl)-9H-carbazole-1-carboxamide]",< 0.05
16,"COC1CN(C(=O)c2ccc3c4cc(-c5c(C)noc5C)cc(C(N)=O)c4n(S(C)(=O)=O)c3c2)C1 [Example 14, 3-(3,5-dimethyl-4-isoxazolyl)-7-((3-methoxy-1-azetidinyl)carbonyl)-9-(methylsulfonyl)-9H-carbazole-1-carboxamide]",< 0.05
17,"Cc1noc(C)c1-c1cc(C(N)=O)c2c(c1)c1ccc(C(=O)N3CCC(F)(F)CC3)cc1n2S(C)(=O)=O [Example 9, 7-((4,4-difluoro-1-piperidinyl)carbonyl)-3-(3,5-dimethyl-4-isoxazolyl)-9-(methylsulfonyl)-9H-carbazole-1-carboxamide]",< 0.05
18,"CNc1ccc2c3cc(-c4c(C)noc4C)cc(C(N)=O)c3n(CC3CC3)c2c1 [Example 37, 9-(cyclopropylmethyl)-3-(3,5-dimethyl-4-isoxazolyl)-7-(methylamino)-9H-carbazole-1-carboxamide]",< 0.5
19,"CC(=O)Nc1ccc2c3cc(-c4c(C)noc4C)cc(C(N)=O)c3n(CC3CC3)c2c1 [Example 29, 7-acetamido-9-(cyclopropylmethyl)-3-(3,5-dimethyl-4-isoxazolyl)-9H-carbazole-1-carboxamide]",< 0.5
20,"Cc1nocc1-c1cc(C(N)=O)c2c(c1)c1ccc(C(=O)N3C[C@@H](C)O[C@@H](C)C3)cc1n2CC1CC1 [Example 56, 9-(cyclopropylmethyl)-7-((cis-2,6-dimethyl-4-morpholinyl)carbonyl)-3-(3-methyl-4-isoxazolyl)-9H-carbazole-1-carboxamide]",< 0.5
21,"CCNC(=O)Nc1ccc2c3cc(-c4c(C)noc4C)cc(C(N)=O)c3n(CC3CC3)c2c1 [Example 31, 9-(cyclopropylmethyl)-3-(3,5-dimethyl-4-isoxazolyl)-7-((ethylcarbamoyl)amino)-9H-carbazole-1-carboxamide]",< 0.5
22,"Cc1noc(C)c1-c1cc(C(N)=O)c2c(c1)c1ccc(NCC3CCCC3)cc1n2CC1CC1 [Example 39, 7-(cyclopentylmethylamino)-9-(cyclopropylmethyl)-3-(3,5-dimethyl-4-isoxazolyl)-9H-carbazole-1-carboxamide]",< 0.5
23,"Cc1noc(C)c1-c1cc(C(N)=O)c2c(c1)c1c(C(=O)N3C[C@@H](C)O[C@@H](C)C3)cc(C(F)(F)F)cc1n2S(=O)(=O)C1CC1 [Example 74, 9-(cyclopropylsulfonyl)-3-(3,5-dimethyl-4-isoxazolyl)-5-((cis-2,6-dimethyl-4-morpholinyl)carbonyl)-7-(trifluoromethyl)-9H-carbazole-1-carboxamide]",< 0.5
24,"CC(=O)N(C)c1ccc2c3cc(-c4c(C)noc4C)cc(C(N)=O)c3n(CC3CC3)c2c1 [Example 40, 7-(acetyl(methyl)amino)-9-(cyclopropylmethyl)-3-(3,5-dimethyl-4-isoxazolyl)-9H-carbazole-1-carboxamide]",< 0.05
